Measured values reported in patent US20250163032A1, “NOVEL MOLECULES AS INHIBITORS OF DNA DAMAGE REPAIR PATHWAY” (VRise Therapeutics, Inc., priority 2023, published 2025).

Assays:
USP1/UAF1 = USP1/UAF1 (Homo sapiens, UniProt O94782); test: USP1/UAF 1 assay (ubiquitin-rhodamine110 fluorometric deubiquitinase assay); assay type: biochemical; details: for inhibition at 10 µM: read-out: Biochemical assay % inhibition @10 μM; for IC50: 1 nM USP1/UAF1, 150 nM Ub-Rho, read-out: Biochemical assay IC50
Description: Test-1: USP1/UAF 1 Assay:
Deubiquitinase activity of USP1/UAF1 was monitored in a fluorometric assay using ubiquitin-rhodamine110 as substrate. Briefly, enzymatic reactions were conducted in an assay buffer composed of 50 mM HEPES, pH 7.8, 0.5 mM EDTA, 100 mM NaCl, 1 mM TCEP, 0.1 mg/mL BSA, and 0.01% Tween-20 that contained 1 nM USP1/UAF1. Compounds were tested at desired concentrations. The plates were incubated for 15 min to attain equilibrium, and then the enzymatic reaction was initiated by dispensing 150 nM Ub-Rho solution. Fluorescence measurement was performed in a high throughput CCD imager, where kinetic measurements of rhodamine fluorescence were acquired using a 480 nm excitation/540 nm emission filter set. The change in fluorescence intensity over a 5-minute reaction period (typically associated with less than 10% substrate conversion) was normalized against no-inhibitor and no-enzyme controls and the resulting percent inhibition data were fitted to a sigmoidal dose response using a four-parameter Hill equation. Data was be analysed and percent inhibition and/or IC50 for each test compound is calculated accordingly.

[1] = Metabolic stability, human liver microsomes; assay type: in vitro ADME; details: pH 7.4, 1 μM test item, 1 mM NADPH, 60 minutes
Description: (§1) Test-8: Metabolic Stability
(§2) Metabolic stability studies were conducted using mouse, rat, and human liver microsomes. The protocol for the studies with mouse and human liver microsomes (Gibco-Thermo) is provided below.
(§3) In brief, 0.25 mg protein was preincubated in phosphate buffer (pH˜7.4) for 5 min at 37° C. and then added with 1 μM test item followed by addition of 1 mM NADPH (cof actor) and incubated further over a period 60 minutes in duplicate. The reaction mixture was terminated with acetonitrile containing an internal standard and centrifuged further to analyse the test item remaining in the supernatant by LC-MS/MS at different intervals. The percent parent compound remaining was calculated in comparison with similar samples terminated at 0 minutes.

[2] = Metabolic stability, mouse liver microsomes; assay type: in vitro ADME; details: pH 7.4, 1 μM test item, 1 mM NADPH, 60 minutes
Description: as §1, §2, §3

MD-MBA-436 = test: Cell viability assay (CTG assay); assay type: cell-based, human; details: Homo sapiens, 7th day
Description: Test 5: Cell Viability Assay (CTG Assay):
Growth inhibition assays was carried out using […] supplemented media. Cells were seeded at a desired concentration of 1000-6,000 cells/well in a well plate with desired number of wells. Test compounds at a desired concentration range were added after 24 hours. Growth was assessed using the Cell Titer-Glo (CTG, Cell Signaling) for measuring reduction at 7th day after the addition of test compound chemiluminescence values were read by a plate reader. Data was be analysed and percent inhibition and/or IC50 for each test compound is calculated accordingly.

NCI-H1792 = test: Cell viability assay (MTT assay), NCI-H1792; assay type: cell-based; details: Homo sapiens, tested at 10 uM, 168 hours (Test-3)
Description: Test-3: Cell Viability Assay (MTT Assay):
Cell viability assay was carried out using 10% FBS supplemented media. Cells were seeded at desired density in 96 well plate and incubated in a humidified CO2 incubator. After 24 hours of plating, test compounds at desired concentration range were added to the plates and incubated in the CO2 incubator for 168 hours. Post 168 hrs treatment, 12.5 μL of MTT was added to all wells including DMSO control. MTT treated plates were incubated further for 3 hours and MTT crystals were dissolved using 125 μL of DMSO. Absorbance was read on a BIO-RAD iMark Microplate plate reader at a wavelength of 570 nm. Data was analysed and percent inhibition (IC50) due to the test compound compared to the control was calculated using GraphPad Prism.

Sequence of USP1/UAF1 (O94782 whole entry): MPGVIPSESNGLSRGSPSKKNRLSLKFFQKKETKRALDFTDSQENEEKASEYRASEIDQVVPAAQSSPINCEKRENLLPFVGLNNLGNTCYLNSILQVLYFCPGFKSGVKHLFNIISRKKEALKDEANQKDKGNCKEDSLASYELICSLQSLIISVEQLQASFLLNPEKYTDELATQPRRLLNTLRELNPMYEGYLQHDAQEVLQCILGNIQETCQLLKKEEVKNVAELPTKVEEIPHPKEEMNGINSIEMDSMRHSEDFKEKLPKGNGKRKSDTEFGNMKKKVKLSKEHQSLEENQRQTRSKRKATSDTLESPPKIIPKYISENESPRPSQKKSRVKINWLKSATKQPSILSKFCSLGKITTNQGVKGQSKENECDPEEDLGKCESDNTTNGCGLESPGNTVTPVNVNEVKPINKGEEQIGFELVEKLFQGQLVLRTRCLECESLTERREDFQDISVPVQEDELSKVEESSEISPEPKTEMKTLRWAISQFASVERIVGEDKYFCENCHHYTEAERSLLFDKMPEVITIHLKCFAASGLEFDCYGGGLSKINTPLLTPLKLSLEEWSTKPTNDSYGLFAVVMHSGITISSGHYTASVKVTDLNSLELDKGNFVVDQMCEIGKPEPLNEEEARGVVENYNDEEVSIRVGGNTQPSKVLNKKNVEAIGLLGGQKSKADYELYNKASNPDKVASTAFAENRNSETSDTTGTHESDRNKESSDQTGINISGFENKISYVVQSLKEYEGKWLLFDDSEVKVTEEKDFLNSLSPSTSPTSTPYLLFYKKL
Sequence of USP1/UAF1 (Q8TAF3 whole entry partner): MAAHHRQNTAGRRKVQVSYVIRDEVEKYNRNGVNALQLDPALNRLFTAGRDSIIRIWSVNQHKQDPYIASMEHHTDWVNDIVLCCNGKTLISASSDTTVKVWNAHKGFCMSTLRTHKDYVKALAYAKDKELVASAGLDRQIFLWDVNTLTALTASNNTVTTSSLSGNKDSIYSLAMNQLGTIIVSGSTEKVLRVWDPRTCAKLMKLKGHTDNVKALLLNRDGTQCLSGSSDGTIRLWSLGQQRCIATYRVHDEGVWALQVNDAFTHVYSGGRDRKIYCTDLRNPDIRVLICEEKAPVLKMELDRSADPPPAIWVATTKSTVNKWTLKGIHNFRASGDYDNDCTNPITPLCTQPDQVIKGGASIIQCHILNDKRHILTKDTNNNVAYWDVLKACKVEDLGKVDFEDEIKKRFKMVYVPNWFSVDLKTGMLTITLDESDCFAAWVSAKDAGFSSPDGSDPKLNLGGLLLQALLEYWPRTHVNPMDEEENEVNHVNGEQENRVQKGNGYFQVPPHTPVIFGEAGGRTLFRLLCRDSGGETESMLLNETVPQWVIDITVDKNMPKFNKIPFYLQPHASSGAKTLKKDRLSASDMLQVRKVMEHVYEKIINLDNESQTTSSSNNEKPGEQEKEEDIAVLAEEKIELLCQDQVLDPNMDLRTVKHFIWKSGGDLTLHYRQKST

Row | inhibition at 10 µM (USP1/UAF1) [%] | half-life at 1 μM [1] [min] | half-life at 1 μM [2] [min] | inhibition at 1 µM (USP1/UAF1; read-out: Biochemical assay % inhibition @1 μM) [%] | IC50 (USP1/UAF1) [nM] | Structure (SMILES) | inhibition at 10 µM (MD-MBA-436) [%] | IC50 (MD-MBA-436) [nM] | inhibition at 10 µM (NCI-H1792) [%]
1 | > 75 | 683 | 284 |  |  | COc1ncnc(C2CC2)c1-c1nc(OCc2ccc(-c3nc(C(F)(F)F)cn3C)cc2)c2[nH]cnc2n1 [Example 26, 2-(4-cyclopropyl-6-methoxypyrimidin-5-yl)-6-((4-(1-methyl-4-(trifluoromethyl)-1H-imidazol-2-yl)benzyl)oxy)-7H-purine] |  |  | 
2 |  | 9 | 40.2 | > 75 |  | COc1ncnc(C2CC2)c1-c1nc2c(c(N(Cc3ccc(-c4nc(C(F)(F)F)cn4C)cc3)C(N)=O)n1)CCC2 [Example 12, 1-(2-(4-cyclopropyl-6-methoxypyrimidin-5-yl)-6,7-dihydro-5H-cyclopenta[d]pyrimidin-4-yl)-1-(4-(1-methyl-4-(trifluoromethyl)-1H-imidazol-2-yl)benzyl)urea] | 50 to 75 |  | 
3 |  | 20.4 |  |  | 100 to 1000 | COc1ncnc(C2CC2)c1-c1nc(NCc2ccc(-c3nc(C(F)(F)F)cn3C)cc2)c2c(c1C#N)CCC2 [Example 2, 3-(4-cyclopropyl-6-methoxypyrimidin-5-yl)-1-((4-(1-methyl-4-(trifluoromethyl)-1H-imidazol-2-yl)benzyl)amino)-6,7-dihydro-5H-cyclopenta[c]pyridine-4-carbonitrile] | 50 to 75 |  | 
4 |  | 52.7 |  |  | 100 to 1000 | COc1ncnc(C2CC2)c1-c1nc2c(c(NCc3ccc(-c4nc(C(F)(F)F)cn4C)cc3)c1C#N)CCC2 [Example 21, 2-(4-cyclopropyl-6-methoxypyrimidin-5-yl)-4-((4-(1-methyl-4-(trifluoromethyl)-1H-imidazol-2-yl)benzyl)amino)-6,7-dihydro-5H-cyclopenta[b]pyridine-3-carbonitriles] | 50 to 75 |  | 
5 |  | 134 | 47 |  | < 50 | COc1ncnc(C2CC2)c1-c1nc2c(c(NCc3ccc(-c4nc(C(F)(F)F)cn4C(C)C)cc3)n1)CCC2 [Example 10, 2-(4-cyclopropyl-6-methoxypyrimidin-5-yl)-N-(4-(1-isopropyl-4-(trifluoromethyl)-1H-imidazol-2-yl)benzyl)-6,7-dihydro-5H-cyclopenta[d]pyrimidin-4-amine] |  | < 50 | 
6 |  | ≥ 300 | ≥ 30 |  | < 50 | COc1ncnc(C2CC2)c1-c1nc(NCc2ccc(-c3nc(C(F)(F)F)cn3C)cc2)c2cccn2n1 [Example 6, 2-(4-cyclopropyl-6-methoxypyrimidin-5-yl)-N-(4-(1-methyl-4-(trifluoromethyl)-1H-imidazol-2-yl)benzyl)pyrrolo[2,1-f][1,2,4]triazin-4-amine] |  | < 50 | 50 to 75
7 |  | 108 | 89.6 |  | 50 to 100 | COc1ncnc(C2CC2)c1-c1nc2c(c(NCc3ccc(-c4nc(C(F)(F)F)cn4C)cc3)n1)CCC2 [Example 1, 2-(4-cyclopropyl-6-methoxypyrimidin-5-yl)-N-(4-(1-methyl-4-(trifluoromethyl)-1H-imidazol-2-yl)benzyl)-6,7-dihydro-5H-cyclopenta[d]pyrimidin-4-amine] |  | < 50 | 25 to 50
8 |  | 227 | 22.6 |  |  | COc1ncnc(C2CC2)c1-c1nc2c(c(OCc3ccc(-c4nc(C(F)(F)F)cn4C)cc3)n1)CCC2 [Example 24, 2-(4-cyclopropyl-6-methoxypyrimidin-5-yl)-4-((4-(1-methyl-4-(trifluoromethyl)-1H-imidazol-2-yl)benzyl)oxy)-6,7-dihydro-5H-cyclopenta[d]pyrimidine] | 75 to 100 |  | 
9 |  |  | 10.1 |  |  | COc1ncnc(C2CC2)c1-c1nc(NCc2ccc(-c3cccnc3)cc2)c2[nH]cnc2n1 [Example 76, 2-(4-cyclopropyl-6-methoxypyrimidin-5-yl)-N-(4-(pyridin-3-yl)benzyl)-7H-purin-6-amine] |  |  | 25 to 50
10 |  | ≥ 700 | ≥ 230 |  | 50 to 100 | COc1ncnc(C2CC2)c1-c1nc(NCc2ccc(-c3nc(C(F)(F)F)cn3C)cc2)c2[nH]cnc2n1 [Example 16, 2-(4-cyclopropyl-6-methoxypyrimidin-5-yl)-N-(4-(1-methyl-4-(trifluoromethyl)-1H-imidazol-2-yl)benzyl)-7H-purin-6-amine] | 50 to 75 |  | 
11 |  | 10.5 |  |  | < 50 | CC(C)c1ccccc1-c1nc2c(c(NCc3ccc(-c4nc(C(F)(F)F)cn4C(C)C)cc3)n1)CCC2 [Example 9, N-(4-(1-isopropyl-4-(trifluoromethyl)-1H-imidazol-2-yl)benzyl)-2-(2-isopropylphenyl)-6,7-dihydro-5H-cyclopenta[d]pyrimidin-4-amine] |  |  | 

Second part, the compound before the results:

Row | Structure (SMILES) | inhibition at 10 µM (USP1/UAF1) [%] | half-life at 1 μM [1] [min] | half-life at 1 μM [2] [min] | inhibition at 1 µM (USP1/UAF1; read-out: Biochemical assay % inhibition @1 μM) [%] | IC50 (USP1/UAF1) [nM] | inhibition at 10 µM (MD-MBA-436) [%] | IC50 (MD-MBA-436) [nM] | inhibition at 10 µM (NCI-H1792) [%]
12 | CC(C)c1ccccc1-c1nc2c(c(NCc3ccc(-c4nc(C(F)(F)F)cn4C)cc3)n1)CCC2 [Example 3, 2-(2-isopropylphenyl)-N-(4-(1-methyl-4-(trifluoromethyl)-1H-imidazol-2-yl)benzyl)-6,7-dihydro-5H-cyclopenta[d]pyrimidin-4-amine] |  | 14 | 14.4 |  | < 50 |  | < 50 | 
13 | COc1ncccc1-c1nc(NCc2ccc(-c3nc(C(F)(F)F)cn3C)cc2)c2ncn(C3CCCCO3)c2n1 (centres unmarked) [Example 31, 2-(2-methoxypyridin-3-yl)-N-(4-(1-methyl-4-(trifluoromethyl)-1H-imidazol-2-yl)benzyl)-9-(tetrahydro-2H-pyran-2-yl)-9H-purin-6-amine] |  |  |  |  |  |  |  | 25 to 50
14 | Cc1cnc(-c2ccccc2C(C)C)nc1NCc1ccc(-n2ccnn2)cc1 [ML323, reference compound] |  | 30.3 | 7.58 |  |  |  |  | 
15 | COc1ncccc1-c1nc(NCc2ccc(-c3nc(C(F)(F)F)cn3C)cc2)c2[nH]cnc2n1 [Example 32, 2-(2-methoxypyridin-3-yl)-N-(4-(1-methyl-4-(trifluoromethyl)-1H-imidazol-2-yl)benzyl)-7H-purin-6-amine] | > 75 |  |  |  |  |  |  | 50 to 75
16 | COc1ccncc1-c1nc(NCc2ccc(-c3nc(C(F)(F)F)cn3C)cc2)c2ncn(C3CCCCO3)c2n1 (centres unmarked) [Example 33, 2-(4-methoxypyridin-3-yl)-N-(4-(1-methyl-4-(trifluoromethyl)-1H-imidazol-2-yl)benzyl)-9-(tetrahydro-2H-pyran-2-yl)-9H-purin-6-amine] |  |  |  |  |  |  |  | 50 to 75
17 | CC(C)c1ccccc1-c1nc(NCc2ccc(-c3nc(C(F)(F)F)cn3C)cc2)c2c(c1C#N)CCC2 [Example 4, 3-(2-isopropylphenyl)-1-((4-(1-methyl-4-(trifluoromethyl)-1H-imidazol-2-yl)benzyl)amino)-6,7-dihydro-5H-cyclopenta[c]pyridine-4-carbonitrile] |  | 7.13 | 7.71 |  | 50 to 100 |  | ≥ 1000 | 
18 | COc1ncnc(C2CC2)c1-c1nc(NCc2ccc(-c3ccc(F)cn3)cc2)c2[nH]cnc2n1 [Example 77, 2-(4-cyclopropyl-6-methoxypyrimidin-5-yl)-N-(4-(5-fluoropyridin-2-yl)benzyl)-7H-purin-6-amine] |  |  |  |  |  |  |  | 50 to 75
